Calls of active or inactive are those of the source. The rule behind the calls is not given here.
Columns and labels:
[1] = system: HepG2; test: Antiproliferative activity against human HepG2 cells assessed as inhibition of cell growth at 10 to 200 nM measured up to 3 days by MTT assay; format: functional, cell-based; conditions: dose 10-200 nM, time day <=3, TDE = time-dependent effect
[2] = system: L02; test: Cytotoxicity against human HL7702 cells assessed as inhibition of cell growth measured upto 400 nM measured after 48 hrs by MTT assay; format: toxicity, cell-based; conditions: l02, 48 h
[3] = system: HepG2; test: Effect on cell cycle arrest in human HepG2 cells assessed as increase in accumulation of cells in G2/M phase at 20 to 80 nM incubated for 24 hrs by propidium iodide staining based flow cytometry analysis; format: functional; conditions: dose 20-80 nM, TDE = time-dependent effect
[4] = system: HepG2; test: Effect on cell cycle arrest in human HepG2 cells assessed as decrease in accumulation of cells at G0/G1 phase at 20 nM measured upto 24 hrs hrs by propidium iodide staining based flow cytometry analysis; format: functional; conditions: time hrs <=24, TDE = time-dependent effect
[5] = system: HepG2; test: Induction of apoptosis in human HepG2 cells assessed as cell rounding at 100 nM incubated for 24 hrs by DAPI staining based phase contrast microscopic analysis; format: functional
[6] = system: HepG2; test: Induction of apoptosis in human HepG2 cells assessed as activation of caspase 3 measured after 24 hrs by Western blot analysis; format: functional, cell-based; conditions: dose 10-40 nM
[7] = Toxicity in NCR-nu/nu mouse bearing human HCCLM3 tumor assessed as effect on body weight at 25 to 50 mg/kg, ip administered alternate days for 21 days and measured every three days; format: organism-based; conditions: in vivo, 504 h, dose 25-50 mg/kg, time 21 day
[8] = system: HepG2; test: Antitumor activity against human HepG2 cells xenografted in NCR-nu/nu mouse assessed wet tumor weight at 50 mg/kg, ip administered alternate days for 21 days and measured 26 days post implantation (Rvb= 0.92 +/- 0.13 g); format: functional; conditions: time 21 day
[9] = system: HepG2; test: Induction of apoptosis in human HepG2 cells xenografted in NCR-nu/nu mouse assessed as increase in total apoptotic cells in tumor at 50 mg/kg, ip administered alternate days for 21 days and measured 26 days post implantation by TUNEL staining based confocal microscopic analysis; format: functional, organism-based; conditions: time 21.0 day
[10] = system: HCCLM3; test: Induction of apoptosis in human HCCLM3 cells xenografted in NCR-nu/nu mouse assessed as increase in total apoptotic cells in tumor at 25 to 50 mg/kg, ip administered alternate days for 21 days and measured 26 days post implantation by TUNEL staining based confocal microscopic analysis; format: functional, organism-based; conditions: dose 25-50 mg/kg, time 21.0 day
[11] = Systemic toxicity in NCR-nu/nu mouse bearing human HCCLM3 tumor assessed as pathological change in liver at 25 to 50 mg/kg, ip administered alternate days for 21 days and measured 26 days post implantation by H and E staining based analysis; format: organism-based; conditions: in vivo, 504 h, dose 25-50 mg/kg, time 21 day
[12] = Systemic toxicity in NCR-nu/nu mouse bearing human HCCLM3 tumor assessed as pathological change in spleen at 25 to 50 mg/kg, ip administered alternate days for 21 days and measured 26 days post implantation by H and E staining based analysis; format: organism-based; conditions: in vivo, 504 h, dose 25-50 mg/kg, time 21 day
[13] = Systemic toxicity in NCR-nu/nu mouse bearing human HCCLM3 tumor assessed as pathological change in kidney at 25 to 50 mg/kg, ip administered alternate days for 21 days and measured 26 days post implantation by H and E staining based analysis; format: organism-based; conditions: in vivo, 504 h, dose 25-50 mg/kg, time 21 day
[14] = system: HepG2; test: Cytotoxicity against human HepG2 cells assessed as cell viability at 62.5 to 250 nM preincubated for 48 hrs by MTT assay; format: functional, cell-based; conditions: dose 62.5-250 nM
[15] = species: Homo sapiens; test: Binding affinity to recombinant pyruvate carboxylase (unknown origin) assessed as thermal stability at upto 1000 nM by cellular thermal […] assay; conditions: dose nM <=1000
[16] = Inhibition of pyruvate carboxylase in human HCCLM3 cells measured upto 24 hrs by PC assay kit; format: cell-based
[17] = Inhibition of pyruvate carboxylase in human HepG2 cell lysate measured upto 24 hrs by PC assay kit; format: subcellular
[18] = system: HCCLM3; test: Cytotoxicity against PC knockout human HCCLM3 cells assessed as reduction in cell viability at 20 to 100 nM measured after 48 hrs by MTT assay; format: functional, cell-based; conditions: dose 20-100 nM
[19] = system: HepG2; test: Induction of apoptosis in human HepG2 cells transfected with PC-flag plasmid assessed as reduction in cell viability at 20 to 100 nM incubated for 48 hrs by MTT assay; format: functional, cell-based; conditions: dose 20-100 nM
[20] = system: HCCLM3; test: Anti-invasive activity against PC knockout human HCCLM3 cells assessed as suppression of cell invasion at 0.05 nM measured after 48 hrs by transwell assay; format: functional, cell-based
[21] = system: SK-HEP1; test: Antiproliferative activity against human SK-HEP1 cells transfected with PC-flag plasmid assessed as reduction in cell viability incubated for 48 hrs by MTT assay; format: functional, cell-based
[22] = system: SK-HEP1; test: Antimigratory activity in human SK-HEP1 cells overexpressing PC assessed as suppression of cell migration at 0.5 nM measured after 48 hrs by wound healing assay; format: functional, cell-based
[23] = system: SK-HEP1; test: Inhibition of epithelial transition in human SK-HEP1 cells overexpressing PC assessed as effect on E-cadherin expression; format: functional, cell-based
[24] = system: SK-HEP1; test: Inhibition of mesenchymal transition in human SK-HEP1 cells overexpressing PC assessed as effect on N-cadherin expression; format: functional, cell-based
[25] = system: SK-HEP1; test: Inhibition of mesenchymal transition in human SK-HEP1 cells overexpressing PC assessed as effect on vimentin expression; format: functional, cell-based
[26] = system: HCCLM3; test: Induction of glycolysis in human HCCLM3 cells assessed as decrease in level of fumarate at 5 nM; format: functional, cell-based
[27] = system: HCCLM3; test: Induction of glycolysis in human HCCLM3 cells assessed as decrease in level of succinate at 5 nM; format: functional, cell-based
[28] = system: HCCLM3; test: Induction of glycolysis in human HCCLM3 cells assessed as decrease in level of L-lactate at 5 nM; format: functional, cell-based
[29] = system: HCCLM3; test: Induction of glycolysis in human HCCLM3 cells assessed as decrease in level of ATP at 5 nM; format: functional, cell-based
[30] = system: HCCLM3; test: Induction of glycolysis in human HCCLM3 cells assessed as decrease in level of malate at 5 nM; format: functional, cell-based
[31] = system: HCCLM3; test: Induction of mitochondrial oxidative stress in human HCCLM3 cells overexpressing PC assessed as accumulation of ROS at 10 nM by DCFH-DA staining based flow cytometry analysis; format: functional, cell-based
[32] = system: HCCLM3; test: Inhibition of mitochondrial oxidative stress in PC knockout human HCCLM3 cells assessed as reduction in […] ratio at 10 nM; format: functional, cell-based
[33] = system: HCCLM3; test: Induction of apoptosis in human HCCLM3 cells assessed as cell shrinkage at 20 nM incubated for 24 hrs by DAPI staining based phase contrast microscopic analysis; format: functional
[34] = system: HCCLM3; test: Antiinvasive activity against human HCCLM3 cells assessed as reduction in cell invasion at 0.05 to 1 nM by matrigel transwell assay; format: functional, cell-based; conditions: dose 0.05-1 nM
[35] = system: HCCLM3; test: Induction of apoptosis in human HCCLM3 cells assessed as nuclear condensation at 20 nM incubated for 24 hrs by DAPI staining based phase contrast microscopic analysis; format: functional, cell-based
[36] = Antitumor activity against human HCCLM3 cells xenografted in NCR-nu/nu mouse assessed wet tumor weight at 50 mg/kg, ip administered alternate days for 21 days and measured 26 days post implantation (Rvb= 1.835 +/- 0.15 g); format: functional; conditions: time 21 day

For `COc1ccc(CCc2cc(OC)c(OC)c(OC)c2)cc1O`, the Activity [1] was “Tde”, the Activity [2] was “Non-Toxic” and the Activity [3] was “Tde”. The Activity [4] was “Tde”, the Activity [5] was “Active” and the Activity [6] was “Dose-Dependent Effect”. For the same compound, the Activity [7] was “Non-Toxic”, the Activity [8] was 0.32 g and the Activity [9] was “Active”. For the same compound, the Activity [10] was “Active”, the Activity [11] was “Non-Toxic” and the Activity [12] was “Non-Toxic”. For the same compound, the Activity [13] was “Non-Toxic”, the Activity [14] was “Active” and the Activity [15] was “Active”. For the same compound, the IC50 [16] was 13.1 µM, the IC50 [17] was 7.18 nM and the Activity [18] was “inactive”. The Activity [19] was “inactive”, the Activity [20] was “Active” and the Activity [21] was “Active”. The Activity [22] was “Active”, the inhibition [23] was “inactive” and the inhibition [24] was “inactive”. For the same compound, the inhibition [25] was “inactive”, the Activity [26] was “Active” and the Activity [27] was “Active”. The Activity [28] was “Active”, the Activity [29] was “Active” and the Activity [30] was “Active”. The Activity [31] was “inactive”, the inhibition [32] was “Active” and the Activity [33] was “Active”. For the same compound, the Activity [34] was “Active”, the Activity [35] was “Active” and the Activity [36] was 0.695 g.

Reference: ChEMBL document CHEMBL5046245, “Identification of Pyruvate Carboxylase as the Cellular Target of Natural Bibenzyls with Potent Anticancer Activity against Hepatocellular Carcinoma via Metabolic Reprogramming” (J Med Chem, 2022)
